Laboratory results taken from PubChem BioAssay (NCI).
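Step 1: Grow cells in 96-well plates. Step 2: Expose to compound for 48 hours at 5 concentrations. Step 3: Interpolate endpoints linearly; if unreached, use highest concentration. GI50 marks 50% less growth. TGI: total growth inhibition.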

Assays:
Assay in all cases: inhibition of tumour cell growth, NCI panel, 48 h
T-47D breast = test system: T-47D breast
MDA-MB-468 breast = test system: MDA-MB-468 breast
ACHN renal = test system: ACHN renal
HOP-62 NSCLC = test system: HOP-62 NSCLC
BT-549 breast = test system: BT-549 breast
OVCAR-4 ovarian = test system: OVCAR-4 ovarian
CCRF-CEM leukemia = test system: CCRF-CEM leukemia
HCT-15 colon = test system: HCT-15 colon
MDA-MB-435 = test system: MDA-MB-435
MCF7 breast = test system: MCF7 breast
MOLT-4 leukemia = test system: MOLT-4 leukemia
SNB-75 CNS = test system: SNB-75 CNS
NCI-H226 lung = test system: NCI-H226 lung
EKVX NSCLC = test system: EKVX NSCLC
SR leukemia = test system: SR leukemia
DU-145 prostate = test system: DU-145 prostate
SK-MEL-5 melanoma = test system: SK-MEL-5 melanoma
HCC-2998 colon = test system: HCC-2998 colon
CAKI-1 renal = test system: CAKI-1 renal
SK-OV-3 ovarian = test system: SK-OV-3 ovarian
NCI/ADR-RES ovarian = test system: NCI/ADR-RES ovarian
PC-3 prostate = test system: PC-3 prostate
NCI-H522 lung = test system: NCI-H522 lung
RPMI-8226 leukemia = test system: RPMI-8226 leukemia
A549 NSCLC = test system: A549 NSCLC
786-0 renal = test system: 786-0 renal
OVCAR-5 ovarian = test system: OVCAR-5 ovarian
LOX IMVI melanoma = test system: LOX IMVI melanoma
MALME-3M melanoma = test system: MALME-3M melanoma
K-562 leukemia = test system: K-562 leukemia

With C=CC(=O)Nc1ccc(C(=O)/C=C/c2ccc(N(C)C)cc2)c(O)c1 the GI50 (T-47D breast) was 2.33 µM, the TGI (T-47D breast) was 12.6 µM and the GI50 (MDA-MB-468 breast) was 1.61 µM. The TGI (MDA-MB-468 breast) was 6.17 µM, the GI50 (ACHN renal) was 1.74 µM and the TGI (ACHN renal) was 3.79 µM. The GI50 (HOP-62 NSCLC) was 3.15 µM, the TGI (HOP-62 NSCLC) was 13.3 µM and the GI50 (BT-549 breast) was 1.39 µM. For the same compound, the TGI (BT-549 breast) was 5.17 µM, the GI50 (OVCAR-4 ovarian) was 4.08 µM and the TGI (OVCAR-4 ovarian) was 43.6 µM. It also gave a GI50 (CCRF-CEM leukemia) of 2.56 µM, a TGI (CCRF-CEM leukemia) greater than 100 µM and a GI50 (HCT-15 colon) of 1.58 µM. For the same compound, the TGI (HCT-15 colon) was 3.75 µM, the GI50 (MDA-MB-435) was 2.92 µM and the TGI (MDA-MB-435) was 14 µM. It also gave a GI50 (MCF7 breast) of 1.88 µM, a TGI (MCF7 breast) of 17 µM and a GI50 (MOLT-4 leukemia) of 2.8 µM. The TGI (MOLT-4 leukemia) was greater than 100 µM, the GI50 (SNB-75 CNS) was 3.27 µM and the TGI (SNB-75 CNS) was 14.8 µM. It also gave a GI50 (NCI-H226 lung) of 2.46 µM, a TGI (NCI-H226 lung) of 11.3 µM and a GI50 (EKVX NSCLC) of 5.76 µM. It also gave a TGI (EKVX NSCLC) of 25.8 µM, a GI50 (SR leukemia) of 1.1 µM and a TGI (SR leukemia) greater than 100 µM. It also gave a GI50 (DU-145 prostate) of 2.93 µM, a TGI (DU-145 prostate) of 12.6 µM and a GI50 (SK-MEL-5 melanoma) of 3.08 µM. The TGI (SK-MEL-5 melanoma) was 12.9 µM, the GI50 (HCC-2998 colon) was 2.41 µM and the TGI (HCC-2998 colon) was 8.77 µM. The GI50 (CAKI-1 renal) was 2.85 µM, the TGI (CAKI-1 renal) was 10.3 µM and the GI50 (SK-OV-3 ovarian) was 9.3 µM. The TGI (SK-OV-3 ovarian) was 26.7 µM, the GI50 (NCI/ADR-RES ovarian) was 2.2 µM and the TGI (NCI/ADR-RES ovarian) was 6.83 µM. It also gave a GI50 (PC-3 prostate) of 4.57 µM, a TGI (PC-3 prostate) of 60.6 µM and a GI50 (NCI-H522 lung) of 1.5 µM. It also gave a TGI (NCI-H522 lung) of 3.11 µM, a GI50 (RPMI-8226 leukemia) of 2.91 µM and a TGI (RPMI-8226 leukemia) of 12 µM. For the same compound, the GI50 (A549 NSCLC) was 2.57 µM, the TGI (A549 NSCLC) was 16.1 µM and the GI50 (786-0 renal) was 2.18 µM. It also gave a TGI (786-0 renal) of 7.94 µM, a GI50 (OVCAR-5 ovarian) of 2.55 µM and a TGI (OVCAR-5 ovarian) of 10.7 µM. It also gave a GI50 (LOX IMVI melanoma) of 1.46 µM, a TGI (LOX IMVI melanoma) of 3.28 µM and a GI50 (MALME-3M melanoma) of 2.19 µM. The TGI (MALME-3M melanoma) was 10.6 µM and the GI50 (K-562 leukemia) was 3.07 µM.
